The values that follow come from US9403847B2, “Substituted heteroaryl fused derivatives as P13K inhibitors” (Incyte Corporation, priority 2009, dated 2016).

Structures are written as SMILES. Structures can show the parent of a compound that is named as a salt.

One assay addresses T1, PI3Kδ (p110δ/p85α) (Homo sapiens, UniProt O00329).
T1 construct: purchased Millipore (Bedford, Mass.)
Description: PI3Kδ scintillation proximity assay (enzyme assay A). It counts as biochemical. Particulars: 20 μM PIP2, 20 μM ATP, 4 nM PI3Kδ, 210 minutes, room temperature; read-out: IC50 data for PI3Kδ enzyme assay A (PI3Kd Enzyme Assay A). From the text: Materials: [γ-^33P]ATP (10 mCi/mL) was purchased from PerkinElmer (Waltham, Mass.). Lipid kinase substrate, D-myo-Phosphatidylinositol 4,5-bisphosphate (PtdIns(4,5)P2)D (+)-sn-1,2-di-O-octanoylglyceryl, 3-O-phospho linked (PIP2), CAS 204858-53-7, was purchased from Echelon Biosciences (Salt Lake City, Utah). PI3Kδ (p110δ/p85α) was purchased from Millipore (Bedford, Mass.). ATP, MgCl2, DTT, EDTA, MOPS and CHAPS were purchased from Sigma-Aldrich (St. Louis, Mo.). Wheat Germ Agglutinin (WGA) YSi SPA Scintillation Beads was purchased from GE healthcare life sciences (Piscataway, N.J.).
Assay: The kinase reaction was conducted in polystyrene 384-well matrix white plate from Thermo Fisher Scientific in a final volume of 25 μL. Inhibitors were first diluted serially in DMSO and added to the plate wells before the addition of other reaction components. The final concentration of DMSO in the assay was 0.5%. The PI3K assays were carried out at room temperature in 20 mM MOPS, pH 6.7, 10 mM MgCl2, 5 mM DTT and CHAPS 0.03%. Reactions were initiated by the addition of ATP, the final reaction mixture consisted of 20 μM PIP2, 20 μM ATP, 0.2 μCi [γ-^33P] ATP, 4 nM PI3Kδ. Reactions were incubated for 210 minutes and terminated by the addition of 40 μL SPA beads suspended in quench buffer: 150 mM potassium phosphate pH 8.0, 20% glycerol. 25 mM EDTA, 400 μM ATP. The final concentration of SPA beads is 1.0 mg/mL. After the plate sealing, plates were shaken overnight at room temperature and centrifuged at 1800 rpm for 10 minutes, the radioactivity of the product was determined by scintillation counting on Topcount (PerkinElmer). IC50 determination was performed by fitting the curve of percent control activity versus the log of the inhibitor concentration using the GraphPad Prism 3.0 software.

Another assay deals with B cells. Description: B cell proliferation assay ([3H]-thymidine incorporation, anti-human IgM stimulation). It counts as cell-based. The note with it: 72 h, purified human B cells, goat F(ab')2 anti-human IgM 10 μg/ml, three days plus 12 hrs [3H]-thymidine. As for the experimental part: To acquire B cells, human PBMC were isolated from the peripheral blood of normal, drug free donors by standard density gradient centrifugation on Ficoll-Hypague (GE Healthcare, Piscataway, N.J.) and incubated with anti-CD19 microbeads (Miltenyi Biotech, Auburn, Calif.). The B cells were then purified by positive immunosorting using an autoMacs (Miltenyi Biotech) according to the manufacture's instruction.
The purified B cells (2×10^5/well/200 μL) were cultured in 96-well ultra-low binding plates (Corning, Corning, N.Y.) in RPMI1640, 10% FBS and goat F(ab′)2 anti-human IgM (10 μg/ml) (Invitrogen, Carlsbad, Calif.), in the presence of different amount of test compounds, for three days. [^3H]-thymidine (1 μCi/well) (PerkinElmer, Boston, Mass.) in PBS was then added to the B cell cultures for an additional 12 hrs before the incorporated radioactivity was separated by filtration with water through GF/B filters (Packard Bioscience, Meriden, Conn.) and measured by liquid scintillation counting with a TopCount (Packard Bioscience). […] See Table 2 for data related to compounds of the invention.

T1 sequence (O00329 whole entry): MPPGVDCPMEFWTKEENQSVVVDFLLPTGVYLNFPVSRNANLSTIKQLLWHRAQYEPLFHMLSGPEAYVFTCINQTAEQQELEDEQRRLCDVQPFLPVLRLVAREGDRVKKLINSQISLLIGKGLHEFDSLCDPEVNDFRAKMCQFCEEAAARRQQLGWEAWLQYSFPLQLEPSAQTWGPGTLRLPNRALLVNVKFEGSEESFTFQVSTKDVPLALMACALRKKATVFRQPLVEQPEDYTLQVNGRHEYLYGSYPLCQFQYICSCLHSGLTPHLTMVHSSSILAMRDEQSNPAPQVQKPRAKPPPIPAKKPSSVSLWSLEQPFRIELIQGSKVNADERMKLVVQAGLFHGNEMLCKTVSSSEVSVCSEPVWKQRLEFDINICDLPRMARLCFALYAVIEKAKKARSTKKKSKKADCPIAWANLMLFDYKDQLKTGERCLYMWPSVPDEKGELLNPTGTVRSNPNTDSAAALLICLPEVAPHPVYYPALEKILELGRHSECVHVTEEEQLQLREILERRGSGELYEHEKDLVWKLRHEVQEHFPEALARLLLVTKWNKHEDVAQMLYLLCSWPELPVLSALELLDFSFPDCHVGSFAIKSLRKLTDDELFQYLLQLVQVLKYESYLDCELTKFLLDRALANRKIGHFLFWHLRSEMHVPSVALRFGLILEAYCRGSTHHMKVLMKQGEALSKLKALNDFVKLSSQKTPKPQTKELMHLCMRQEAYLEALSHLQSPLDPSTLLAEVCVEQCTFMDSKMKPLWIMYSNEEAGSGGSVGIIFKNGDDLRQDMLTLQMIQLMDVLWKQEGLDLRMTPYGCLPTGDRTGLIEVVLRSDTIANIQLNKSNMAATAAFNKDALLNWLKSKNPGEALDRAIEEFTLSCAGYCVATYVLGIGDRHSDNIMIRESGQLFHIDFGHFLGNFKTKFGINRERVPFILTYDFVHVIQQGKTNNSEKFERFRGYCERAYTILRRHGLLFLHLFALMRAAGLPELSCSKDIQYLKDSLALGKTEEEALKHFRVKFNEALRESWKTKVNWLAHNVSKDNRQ
T1 sequence (P27986 whole entry partner): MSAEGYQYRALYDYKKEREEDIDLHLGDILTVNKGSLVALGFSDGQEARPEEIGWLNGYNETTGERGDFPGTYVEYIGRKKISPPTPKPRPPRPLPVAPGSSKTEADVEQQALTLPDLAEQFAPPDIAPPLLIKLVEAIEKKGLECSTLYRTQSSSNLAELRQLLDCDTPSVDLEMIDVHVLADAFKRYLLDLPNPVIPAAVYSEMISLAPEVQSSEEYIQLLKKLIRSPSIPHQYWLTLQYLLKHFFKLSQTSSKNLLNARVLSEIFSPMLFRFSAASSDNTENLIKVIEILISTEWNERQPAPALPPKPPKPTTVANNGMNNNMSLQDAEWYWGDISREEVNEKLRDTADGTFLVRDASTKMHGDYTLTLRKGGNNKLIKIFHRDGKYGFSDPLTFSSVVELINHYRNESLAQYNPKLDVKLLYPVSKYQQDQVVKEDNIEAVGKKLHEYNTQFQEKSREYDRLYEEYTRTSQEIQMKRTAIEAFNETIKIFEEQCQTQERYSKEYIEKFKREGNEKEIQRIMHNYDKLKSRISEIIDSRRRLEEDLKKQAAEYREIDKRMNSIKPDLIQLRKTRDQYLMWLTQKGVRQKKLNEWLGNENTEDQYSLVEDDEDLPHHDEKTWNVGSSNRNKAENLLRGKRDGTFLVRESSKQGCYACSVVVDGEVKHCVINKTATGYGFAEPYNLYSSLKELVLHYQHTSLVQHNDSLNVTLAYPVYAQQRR

For `CC(Nc1ncnc2[nH]cnc12)c1nc2ccccn2c1-c1cccc(F)c1F` (stereo not shown) [Example 18, N-{1-[3-(2,3-Difluorophenyl)imidazo[1,2-a]pyridin-2-yl]ethyl}-9H-purin-6-amine], the IC50 lay in the range of 200 to 500 nM on PI3Kδ (p110δ/p85α) and 1000 to 2500 nM in the assay on B cells.

Take `CC(Nc1ncnc2[nH]cnc12)c1nc2cc(Cl)ccn2c1-c1cccc(F)c1` (stereo not shown) [Example 13, N-{1-[7-Chloro-3-(3-fluorophenyl)imidazo[1,2-a]pyridin-2-yl]ethyl}-9H-purin-6-amine]: the half-maximal inhibitory concentration (IC50) at PI3Kδ (p110δ/p85α) was less than 200 nM.

For the compound `Cc1cccc2nc(C(C)Nc3ncnc4[nH]cnc34)c(-c3cc(F)cc(F)c3)n12` (stereo not shown) [Example 1, N-{1-[3-(3,5-Difluorophenyl)-5-methylimidazo[1,2-a]pyridin-2-yl]ethyl}-9H-purin-6-amine], the IC50 at PI3Kδ (p110δ/p85α) is less than 200 nM; in the assay with B cells, less than 500 nM.

As for `CC(Nc1ncnc2[nH]cnc12)c1nc2c(Cl)cccn2c1-c1cccc(F)c1` (stereo not shown) [Example 11, N-{1-[8-Chloro-3-(3-fluorophenyl)imidazo[1,2-a]pyridin-2-yl]ethyl}-9H-purin-6-amine bis(trifluoroacetate)], the half-inhibitory concentration (IC50) on PI3Kδ (p110δ/p85α) was less than 200 nM; with B cells, 500 to 1000 nM.

For `CC(Nc1ncnc2[nH]cnc12)c1nc2ccc(Cl)cn2c1-c1cccc(F)c1` (stereo not shown) [Example 6, N-{1-[6-Chloro-3-(3-fluorophenyl)imidazo[1,2-a]pyridin-2-yl]ethyl}-9H-purin-6-amine bis(trifluoroacetate)], the IC50 is less than 200 nM on PI3Kδ (p110δ/p85α) and less than 500 nM in the assay with B cells.

With `Cc1csc2nc(C(C)Nc3ncnc4[nH]cnc34)c(-c3cccc(F)c3)n12` (stereo not shown) [Example 4, N-{1-[5-(3-Fluorophenyl)-3-methylimidazo[2,1-b][1,3]thiazol-6-yl]ethyl}-9H-purin-6-amine bis(trifluoroacetate)], the half-inhibitory concentration (IC50) was in the range of 500 to 990 nM on PI3Kδ (p110δ/p85α) and 1000 to 2500 nM in the assay with B cells.

Consider `Cc1ccc2nc(C(C)Nc3ncnc4[nH]cnc34)c(-c3cccc(F)c3)n2c1` (stereo not shown) [Example 8, N-{1-[3-(3-Fluorophenyl)-6-methylimidazo[1,2-a]pyridin-2-yl]ethyl}-9H-purin-6-amine bis(trifluoroacetate)], for which the values for the IC50 at PI3Kδ (p110δ/p85α) and with B cells were 500 to 990 nM and 1000 to 2500 nM, respectively.

Take `CC(Nc1ncnc2[nH]cnc12)c1nc2cccc(Cl)n2c1-c1cccc(F)c1` (stereo not shown) [Example 7, N-{1-[5-Chloro-3-(3-fluorophenyl)imidazo[1,2-a]pyridin-2-yl]ethyl}-9H-purin-6-amine tris(trifluoroacetate)]: the IC50 at PI3Kδ (p110δ/p85α) is less than 200 nM; in the assay on B cells, less than 500 nM.

For the compound `CC(Nc1ncnc2[nH]cnc12)c1nc2c(C#N)cccn2c1-c1cccc(F)c1` (stereo not shown) [Example 16, 3-(3-Fluorophenyl)-2-[1-(9H-purin-6-ylamino)ethyl]imidazo[1,2-a]pyridine-8-carbonitrile bis(trifluoroacetate)], the half-maximal inhibitory concentration (IC50) on PI3Kδ (p110δ/p85α) fell in the range of 990 to 2000 nM.

`CC(Nc1ncnc2[nH]cnc12)c1nn2ccccc2c1-c1cc(F)cc(F)c1` (stereo not shown) [Example 25, N-{1-[3-(3,5-Difluorophenyl)pyrazolo[1,5-a]pyridin-2-yl]ethyl}-9H-purin-6-amine trifluoroacetate]: the figures for the half-inhibitory concentration (IC50) on PI3Kδ (p110δ/p85α) and in the assay on B cells were less than 200 nM and 500 to 1000 nM, respectively.

On to `CC(Nc1ncnc2[nH]cnc12)c1nc2ccccn2c1-c1cc(F)ccc1F` (stereo not shown) [Example 21, N-{1-[3-(2,5-Difluorophenyl)imidazo[1,2-a]pyridin-2-yl]ethyl}-9H-purin-6-amine], for which the half-inhibitory concentration (IC50) on PI3Kδ (p110δ/p85α) is less than 200 nM; in the assay with B cells, 2500 to 5000 nM.

Regarding `CC(Nc1ncnc2[nH]cnc12)c1nc2c(C(F)(F)F)cccn2c1-c1cccc(F)c1` (stereo not shown) [Example 15, N-{1-[3-(3-Fluorophenyl)-8-(trifluoromethyl)imidazo[1,2-a]pyridin-2-yl]ethyl}-9H-purin-6-amine bis(trifluoroacetate)], the IC50 at PI3Kδ (p110δ/p85α) lay in the range of 990 to 2000 nM.

`CC(Nc1ncnc2[nH]cnc12)c1nc2sccn2c1-c1cc(F)cc(F)c1` (stereo not shown) [Example 3, N-{1-[5-(3,5-Difluorophenyl)imidazo[2,1-b][1,3]thiazol-6-yl]ethyl}-9H-purin-6-amine bis(trifluoroacetate)]: the half-inhibitory concentration (IC50) at PI3Kδ (p110δ/p85α) is greater than 2000 nM.

With `CC(Nc1ncnc2[nH]cnc12)c1nc2ccccn2c1-c1ccccc1F` (stereo not shown) [Example 19, N-{1-[3-(2-Fluorophenyl)imidazo[1,2-a]pyridin-2-yl]ethyl}-9H-purin-6-amine], the concentration for half-maximal inhibition (IC50) on PI3Kδ (p110δ/p85α) was 200 to 500 nM; with B cells it was less than 500 nM.

On to `Cc1ccccc1-c1c(C(C)Nc2ncnc3[nH]cnc23)nc2ccccn12` (stereo not shown) [Example 20, N-{1-[3-(2-Methylphenyl)imidazo[1,2-a]pyridin-2-yl]ethyl}-9H-purin-6-amine], for which the IC50 at PI3Kδ (p110δ/p85α) was in the range of 990 to 2000 nM.

Consider `Cc1cccc(-c2c(C(C)Nc3ncnc4[nH]cnc34)nc3ccccn23)c1` (stereo not shown) [Example 22, N-{1-[3-(3-Methylphenyl)imidazo[1,2-a]pyridin-2-yl]ethyl}-9H-purin-6-amine], for which the IC50 on PI3Kδ (p110δ/p85α) lay within 500 to 990 nM.

Consider `Cc1ccc(-c2c(C(C)Nc3ncnc4[nH]cnc34)nc3ccccn23)cc1` (stereo not shown) [Example 17, N-{1-[3-(4-Methylphenyl)imidazo[1,2-a]pyridin-2-yl]ethyl}-9H-purin-6-amine], for which the IC50 on PI3Kδ (p110δ/p85α) was 500 to 990 nM.

As to `CC(Nc1ncnc2[nH]cnc12)c1nc2ccccn2c1-c1ccc(F)cc1` (stereo not shown) [Example 24, N-{1-[3-(4-Fluorophenyl)imidazo[1,2-a]pyridin-2-yl]ethyl}-9H-purin-6-amine], the half-inhibitory concentration (IC50) at PI3Kδ (p110δ/p85α) was in the range of 990 to 2000 nM.

Take `Cc1ccn2c(-c3cccc(F)c3)c(C(C)Nc3ncnc4[nH]cnc34)nc2c1` (stereo not shown) [Example 9, N-{1-[3-(3-Fluorophenyl)-7-methylimidazo[1,2-a]pyridin-2-yl]ethyl}-9H-purin-6-amine bis(trifluoroacetate)]: the half-inhibitory concentration (IC50) was greater than 2000 nM at PI3Kδ (p110δ/p85α) and greater than 5000 nM in the assay with B cells.

`Cc1cccn2c(-c3cccc(F)c3)c(C(C)Nc3ncnc4[nH]cnc34)nc12` (stereo not shown) [Example 10, N-{1-[3-(3-Fluorophenyl)-8-methylimidazo[1,2-a]pyridin-2-yl]ethyl}-9H-purin-6-amine bis(trifluoroacetate)]: the half-inhibitory concentration (IC50) on PI3Kδ (p110δ/p85α) was less than 200 nM; with B cells, less than 500 nM.

Regarding `CC(Nc1ncnc2[nH]cnc12)c1nc2ccccn2c1-c1cccc(F)c1` (stereo not shown) [Example 2, N-{1-[3-(3-Fluorophenyl)imidazo[1,2-a]pyridin-2-yl]ethyl}-9H-purin-6-amine], the concentration for half-maximal inhibition (IC50) at PI3Kδ (p110δ/p85α) is less than 200 nM; with B cells it was less than 500 nM.

In the case of `CC(Nc1ncnc2[nH]cnc12)c1nc2ccccn2c1-c1cc(F)cc(F)c1` (stereo not shown) [Example 23, N-{1-[3-(3,5-Difluorophenyl)imidazo[1,2-a]pyridin-2-yl]ethyl}-9H-purin-6-amine], the IC50 lay in the range of 200 to 500 nM at PI3Kδ (p110δ/p85α) and 1000 to 2500 nM in the assay on B cells.

`Cc1cn2c(-c3cccc(F)c3)c(C(C)Nc3ncnc4[nH]cnc34)nc2s1` (stereo not shown) [Example 5, N-{1-[5-(3-Fluorophenyl)-2-methylimidazo[2,1-b][1,3]thiazol-6-yl]ethyl}-9H-purin-6-amine]: the IC50 is greater than 2000 nM on PI3Kδ (p110δ/p85α) and 2500 to 5000 nM with B cells.

With `CC(Nc1ncnc2[nH]cnc12)c1nc2c(F)cccn2c1-c1cccc(F)c1` (stereo not shown) [Example 14, N-{1-[8-Fluoro-3-(3-fluorophenyl)imidazo[1,2-a]pyridin-2-yl]ethyl}-9H-purin-6-amine], the IC50 at PI3Kδ (p110δ/p85α) is less than 200 nM; with B cells, 500 to 1000 nM.
